{
  "source": "patent EP0380554B1",
  "about": "“VASOACTIVE PEPTIDES” (Ferring AB, priority 1987, dated 1993)",
  "tested_on": "anaesthetised Sprague Dawley rats",
  "experiment": "Blood pressure test (4-point test against the standard AVP)",
  "type": "in vivo",
  "settings": "result in words; for potency in respect of blood pressure increase: maximal blood pressure increase after intravenous injections, rats previously treated with dibenamine, related to standard AVP, compared with known derivatives 2 and 3; for specificity (ratio of potency blood pressure/potency antidiuresis, BP/AD): ratio of blood pressure potency to antidiuretic potency, compared with known compounds 1, 2 and 3; for length of the effect (index of persistence, I.P.): duration of the blood pressure effect in relation to standard AVP, compared with known substances 1, 2 and 3",
  "excerpt": "Vasotocin derivatives according to the invention have been tested for potency of both blood pressure and antidiuretic activity in a so-called 4-point test, i.e. the activity of the test substances has been related to a standard preparation (AVP = arginine-vasopressin), and the effects of two dose levels for each substance have been analysed. In addition, two known pressor-specific analogs (VT derivatives) have been tested for a comparison, namely 1-mpa-2-Phe-8-Orn-VT (mpa = 3-mercaptopropionyl) (Huguenin, R.L., Boissonnas, R.A., 1966. Helv. Chim. Acta, 49, 711), and 2-Phe-8-Orn-VT (SE-332993, Sandoz).\nBlood pressure tests were carried out on anaesthetised Sprague Dawley rats (about 250 g), previously treated with dibenamine (Dekanski, J., 1952. Br. J. Pharmacol. 7, 567). Maximal blood pressure increase after intravenous injections of peptide was used as a measure of the effect, expressed as intensity.\nIn addition to potency determination based on effect intensity, a measure of the length of the effect has been stated (index of persistence (I.P.), Pli ? ka, V., 1966. Arzheim. Forsch. 16, 886). This dimensionless factor is a measure of the effect duration of the respective analog in relation to the standard AVP.\nIn these two tests, a comparison was made between the effects of the respective derivative and the effect of a standard preparation, AVP, and potency was determined with the aid of a 4-point test and is indicated in international units per milligram (IU/mg) (Stürmer, E., i: Handbook of Experimental Pharmacology, 1966, Vol 23, pp 130-189).",
  "data": [
    {"substance": "1-Hmp-2-Phe-8-Dab-VT [compound 5]", "values": [
      {"measurement": "potency in respect of blood pressure increase", "result": "very high potency"},
      {"measurement": "specificity (ratio of potency blood pressure/potency antidiuresis, BP/AD)", "result": "equivalent or higher specificity"}
    ]},
    {"substance": "1-Hmp-2-Phe-8-Orn(Ala)-VT [compound 6]", "values": [
      {"measurement": "length of the effect (index of persistence, I.P.)", "result": "considerably prolonged effect"},
      {"measurement": "potency in respect of blood pressure increase", "result": "surprisingly high blood pressure potency"},
      {"measurement": "specificity (ratio of potency blood pressure/potency antidiuresis, BP/AD)", "result": "adequate specificity"}
    ]},
    {"substance": "1-Hmp-2-Phe-8-Orn-VT [compound 4]", "values": [
      {"measurement": "potency in respect of blood pressure increase", "result": "very high potency"},
      {"measurement": "specificity (ratio of potency blood pressure/potency antidiuresis, BP/AD)", "result": "equivalent or higher specificity"}
    ]},
    {"substance": "Gly^o-1-Hmp-2-Phe-8-Orn-VT [compound 7]", "values": [
      {"measurement": "length of the effect (index of persistence, I.P.)", "result": "considerably prolonged effect"},
      {"measurement": "potency in respect of blood pressure increase", "result": "surprisingly high blood pressure potency"},
      {"measurement": "specificity (ratio of potency blood pressure/potency antidiuresis, BP/AD)", "result": "adequate specificity"}
    ]}
  ]
}
